Measured values from patent publication US10882845B2, “Crystal form of deuterated AZD9291, preparation method therefor, and use thereof” (TYK MEDICINES INC., priority 2017, dated 2021).
Counter-ions that a name gives are not always drawn. Blank lines part the entries; values can stand above or below the compound they belong to.

How the values were obtained:
[1] = Passage through the blood-brain barrier into the brain; type: in vivo; conditions: in the body
Description: At present, some deuterated AZD9291 compounds have been reported in CN104140418B and CN105237515A, but no crystal forms of the pharmaceutically acceptable salt of deuterated AZD9291 have been reported. A crystal form is a solid state of a drug. The study of the drug crystal form is the study of the basic state of the drug. It is impossible to find a crystal form of a drug (solid material) that is more suitable for treating the disease, unless having a full and comprehensive understanding of the crystal form of the chemical drug. The crystal form of a drug can affect physical and chemical properties of the drug, and directly affect the clinical basis of the drug to play a role in the treatment of disease. At the same time, due to the solubility of some drugs, such drugs shall be made into a pharmaceutically acceptable salt, which can greatly improve its solubility and improve the absorption and utilization of drugs. The applicant has been engaged in the research of drugs for lung cancer, started drug research on EGFR targets very early, and has obtained a series of research results6, such as patent applications CN102659692, U.S. Ser. No. 08/916,572, CN107382879, WO2017219500 and WO2018050052. […] Therefore, it has no effect on tumors metastasized to the brain. […]

[2] = in vivo; conditions: rat, po
Description: Moreover, a single impurity is below 0.1%, which is in line with requirements for the development of API and CMC.
The high bioavailability of oral administration proves that this crystal form is suitable for the development of oral preparations.

[3] = Accelerated stability test (drug accelerated stability test chamber, 40° C., relative humidity 75%); type: physicochemical; conditions: 75% RH
Method: The stability of the crystal form of the compound represented by the formula (I) or the formula (II) was further measured, and the apparatus used was a drug accelerated stability test chamber; the accelerated test condition was 40° C., and the relative humidity was 75%. After an accelerated test for six months in the drug accelerated stability test chamber was completed, a sample of the crystal form of the compound of the formula (I) or the formula (II) was obtained and subjected to X-ray powder diffraction analysis, and the obtained X-ray powder diffraction pattern was as shown in FIG. 2.

[4] = Stability at room temperature; type: physicochemical; conditions: for Purity (HPLC) / character (visual inspection) / hygroscopicity (visual inspection): room temperature
Description: The crystal form of the compound of the formula (I) or the formula (II) obtained by the method 1 or the method 2 of the present invention is not changed in moisture absorption or the like after being left at room temperature for 1 month. […] Its purity was as high as 99.83%, and the content of each single impurity was below 0.1%, which was suitable for the subsequent development of active pharmaceutical ingredient and preparations as well as subsequent pharmacokinetic experiments and zoological experiments.
The crystal form of deuterated AZD9291 mesylate prepared in the present invention was placed in a laboratory at room temperature, and the stability at room temperature was examined.

[5] = Accelerated stability test (drug accelerated stability test chamber, 40° C., relative humidity 75%); type: physicochemical; conditions: 75% RH; remark: listed apart in the source

SMILES: C=CC(=O)Nc1cc(Nc2nccc(-c3c[nH]c4ccccc34)n2)c(OC)cc1N(C)CCN(C)C [AZ5104]
passage through the blood-brain barrier [1]: cannot pass through the blood-brain barrier

SMILES: C=CC(=O)Nc1cc(Nc2nccc(-c3cn(C)c4ccccc34)n2)c(OC)cc1N(C)CCN(C)C [compound of formula III]
passage through the blood-brain barrier [1]: can enter the brain through the blood-brain barrier

AUC [2]: 1270 ng·h/mL | bioavailability [2]: 30.9% | highest blood concentration [2]: 117 ng/mL | crystal form (X-ray powder diffraction) ([3]; month 6, listed as crystal form of the compound represented by the formula (I) or the formula (II)): no crystal | crystal form (X-ray powder diffraction) ([3]; month 6, listed as crystal form of the present invention): maintained | change in moisture absorption or the like ([4]; left at room temperature for 1 month): not changed | Purity (HPLC) ([4]; day 0): 99.73% | character (visual inspection) ([4]; day 0): off-white powder | Purity (HPLC) ([4]; day 15): 99.70% | character (visual inspection) ([4]; day 15): off-white powder | hygroscopicity (visual inspection) ([4]; day 15): (no hygroscopicity) | Purity (HPLC) ([4]; day 30): 99.74% | character (visual inspection) ([4]; day 30): off-white powder | hygroscopicity (visual inspection) ([4]; day 30): (no hygroscopicity) | character (visual inspection) ([5]; month 0): off-white | compound purity (HPLC) ([5]; month 0): 99%, | deuteration rate (HNMR) ([5]; month 0): rate 99% | character (visual inspection) ([5]; month 1): off-white, | compound purity (HPLC) ([5]; month 1): 99%, | deuteration rate (HNMR) ([5]; month 1): rate 99% | hygroscopicity (visual inspection) ([5]; month 1): no | character (visual inspection) ([5]; month 2): off white, | compound purity (HPLC) ([5]; month 2): 99%, | deuteration rate (HNMR) ([5]; month 2): rate 99% | hygroscopicity (visual inspection) ([5]; month 2): no | character (visual inspection) ([5]; month 3): off white, | compound purity (HPLC) ([5]; month 3): 99%, | deuteration rate (HNMR) ([5]; month 3): rate 99% | hygroscopicity (visual inspection) ([5]; month 3): no | character (visual inspection) ([5]; month 4): off white, | compound purity (HPLC) ([5]; month 4): 99%, | deuteration rate (HNMR) ([5]; month 4): rate 99% | hygroscopicity (visual inspection) ([5]; month 4): no | character (visual inspection) ([5]; month 6): off white, | compound purity (HPLC) ([5]; month 6): 99%, | deuteration rate (HNMR) ([5]; month 6): rate 99% | hygroscopicity (visual inspection) ([5]; month 6): no
SMILES: [2H]C([2H])([2H])n1cc(-c2ccnc(Nc3cc(NC(=O)C=C)c(N(C)CCN(C)C)cc3OC)n2)c2ccccc21 [deuterated AZD9291 mesylate crystal form]
